Data taken from US20080207738A1, “DRUG COMBINATIONS TO TREAT DRUG RESISTANT TUMORS” (priority 2007, published 2008).
Read-outs that look alike come from different tables or passages of the source.

Assays:
[1] = tested on: parent L5178 mouse T-cell lymphoma cells; assay: MTT cell viability, parent L5178 cells; settings: Mus musculus, L5178, 72 h, read-out: Inhibition (%) of viability
Excerpt: (§1) For the determination of relative number of viable cells before and after treatments, in most cases the MTT assay was used. This calorimetric assay is based on the ability of living cells, but not dead cells, to reduce 3-(4, 5-dimethyl thiazol-2-yl)-2, 5-diphenyltetrazolium bromide [Carmichael, J, De Graff, W. G., Gazdar, A. F., Minna, J. D. and Mitchell, J. B. (1987), “Evaluation oftetrazolium-based semiautomated calorimetric assay: Assessment of chemosensitivity testing,” Cancer Res., 47, 936-942]. For this assay, cells were plated in 96-well plates (10,000-30,000 cells in case of cultured cells, 100,000 cells in case of healthy lymphocytes, and 200,000 cells in case of chronic lymphocytic leukemia or non-Hodgkin lymphocytes) in the respective incubation media. After a 24-h resting period, the cells were treated with the test agents and then incubated (in CO2 incubator under humidified atmosphere) for 72 hours (final incubation volume, 150 μl). The MTT assay was performed both with the untreated and treated cell cultures at the conclusion of the incubation. Often, the MTT assay also was performed at the start of treatments to allow assessment of proliferation rates in the control and treated cell cultures. All data presented are the average of 4 incubations (in 4 separate wells) with the same cell population.
Parent L5178 cells were seeded at 10,000 cells per well in 96-well plates and then incubated for 72 hours in the absence or presence of CCcompound104 (1 or 5 μg/ml) and various concentrations of CCcompound26 as indicated in Table 5.
(§2) Epirubicin, like doxorubicin and other antracyclins, is an MDR1 substrate. The goal of this experiment was to use epirubicin as a model compound to determine if in L5178/MDR1 cells CCcompound104 also can enhance the effects of MDR1 substrate anti-cancer agents other than CCcompound26 and other thioxanthene or thioxanthone CC compounds. The parent and MDR1 expressing cells were seeded at 30,000 cells per well in 96-well microplates and after a 24-h resting period treated with increasing concentrations of epirubicin n in the absence or presence of 5 μg/ml of CCcompound104 for 72 hours.

[2] = tested on: L5178/MDR1 mouse T-cell lymphoma cells; assay: cells; settings: Mus musculus, T-cell, 72 h, read-out: Inhibition (%) of viability
Excerpt: as §1
L5178/MDR1 cells were seeded at 10,000 cells per well in 96-well plates and then incubated for 72 hours in the absence or presence of 5 μg/ml of CCcompound104 and various concentrations of CCcompound26 as indicated in Table 6.
as §2

MCF-7/ADR cells = assay: MTT cell viability, MCF-7/ADR cells; type: cell-based, human; settings: 72 h; CCcompound104 5 μg/ml, EA 60 μM, CCcompound26/CCcompound3/CCcompound19 50 μM, alone or combined
Experimental: MCF/ADR cells were selected by incubating the parent MCF-7 with toxic concentrations (up to 10 μM) of adriamycin (doxorubicin). The selected drug resistant cells express both MDR1 and MRP1 among other molecular alterations as reviewed earlier [Kiss, Z., Tomono, M. and Anderson, W. B. (1994), “Phorbol ester selectively stimulates the phospholipase D-mediated hydrolysis of phosphatidylethanolamine in multidrug-resistant MCF-7 human breast carcinoma cells,” Biochem. J., 302, 649-654]. […] Ethacrynic acid (EA) alone, used at 60 μM concentration, decreased cell viability by about 24%, while CCcompound104 and EA in combination had 70% inhibitory effects (Table 7). In this cell line CCcompound104 and EA decreased cell viability synergistically.

CLL cells = assay: cells; settings: Homo sapiens, CLL cell, 72 h, 72 h, CCcompound104 5 μg/ml, CCcompound26 1 μM, alone or combined
Experimental: Heparinized peripheral-blood samples were obtained from chronic lymphocytic leukemia patients with more than 70% malignant cells after informed consent, in accordance with the Declaration of Helsinki. The blood samples (10-ml) were diluted 1:1 with cold phosphate buffered saline (PBS; 0.135 M NaCl, 2.7 mM KCl, 1.5 mM KH2PO4, 8 mM Na2HPO4 [pH 7.4]) and layered onto Ficoll-Hypaque (8-ml, specific gravity, 1.086; Life Technologies, Grand Island, N.Y.). Then, the blood was centrifuged at 433 g for 20 min, and mononuclear cells were removed from the interphase. Cells were washed twice with cold PBS and after each centrifugation step the pelleted cells were resuspended in 10-ml RPMI 1640 supplemented with 10% fetal bovine serum (inactivated for 30 min at 56° C.). A Coulter channelyzer (Coulter Electronics, Hialeah, Fla.) was used to determine the cell number. Then the number of cells was adjusted to 1×10^7 cells per 1 ml before using them for the experiments.
as §1

Solubility in water = type: physicochemical
Excerpt: In one embodiment, CCcompound104, CCcompound26 and EA may be administered orally. The two CC compounds are water-soluble, while EA is first dissolved in absolute ethanol and diluted in water or a suitable physiologically compatible liquid solvent. In one embodiment of the invention, the CC compounds and EA are in the form of a tablet, gel capsule, a liquid, or the like. In each case, the compounds are mixed with one or more carriers chosen by one having ordinary skill in the art to best suit the goal of treatment. In addition to the active compounds, the tablet or gel may contain any component that is presently used in the pharmaceutical field to ensure firmness, stability, solubility and appropriate taste. Any additional component of the tablet or gel will be chemically inert; i.e., it will not participate in a chemical reaction with the active compounds or the other additives. Each compound may be prepared for oral consumption separately, or the tablet, gel capsule or liquid may contain any of the two components or all three components. Tablets containing 25 mg or 50 mg of EA can be purchased from Merck.

Question: What does the source list for `C=CC[N+](CC)(CC)CC/C=C1/c2ccccc2Sc2ccc(C)cc21.[Br-]` [CCcompound26, N,N-Diethyl-N-allyl-3-(2-methyl-9H-thioxanthen-9-ylidene)-propan-1-aminiumbromide]?
Answer: cytotoxicity at 1.56 µM [1]: 55%; cytotoxicity at 3.12 µM [1]: 68%; cytotoxicity at 6.25 µM [1]: 80%; cytotoxicity at 1.56 µM [2]: 0%; cytotoxicity at 3.12 µM [2]: 0%; cytotoxicity at 6.25 µM [2]: 10%; cytotoxicity at 12.5 µM [2]: 15%; cytotoxicity at 25 µM [2]: 13%; cytotoxicity at 100 µM [2]: 56%; Inhibition (%) of viability (MCF-7/ADR cells): 24.3%; cytotoxicity at 1 µM (CLL cells; read-out: Inhibition (%) of viability, CLL patient 1): 3.5%; cytotoxicity at 1 µM (CLL cells; read-out: Inhibition (%) of viability, CLL patient 2): 15.8%; cytotoxicity at 1 µM (CLL cells; read-out: Inhibition (%) of viability, CLL patient 3): 66.6%; cytotoxicity at 1 µM (CLL cells; read-out: Inhibition (%) of viability, CLL patient 4): 46.2%; cytotoxicity at 1 µM (CLL cells; read-out: Inhibition (%) of viability, CLL patient 5): 10.8%; cytotoxicity at 1 µM (CLL cells; read-out: Inhibition (%) of viability, CLL patient 6): 20.9%; cytotoxicity at 1 µM (CLL cells; read-out: Inhibition (%) of viability, CLL patient 7): 1.8%; cytotoxicity at 1 µM (CLL cells; read-out: Inhibition (%) of viability, CLL patient 8): 9%; cytotoxicity at 1 µM (CLL cells; read-out: Inhibition (%) of viability, CLL patient 9): 9.2%; cytotoxicity at 1 µM (CLL cells; read-out: Inhibition (%) of viability, CLL patient 10): 40.7%; cytotoxicity at 1 µM (CLL cells; read-out: Inhibition (%) of viability, CLL patient 11): 48.1%; cytotoxicity at 1 µM (CLL cells; read-out: Inhibition (%) of viability, CLL patient 12): 30.4%; cytotoxicity at 1 µM (CLL cells; read-out: Inhibition (%) of viability, CLL patient 13): 42.8%; cytotoxicity at 1 µM (CLL cells; read-out: Inhibition (%) of viability, CLL patient 14): 72.7%; cytotoxicity at 1 µM (CLL cells; read-out: Inhibition (%) of viability, CLL patient 15): 1.6%; cytotoxicity at 1 µM (CLL cells; read-out: Inhibition (%) of viability, CLL patient 16): 50%; cytotoxicity at 1 µM (CLL cells; read-out: Inhibition (%) of viability, CLL patient 19): 22.5%; cytotoxicity at 1 µM (CLL cells; read-out: Inhibition (%) of viability, CLL patient 20): 0%; solubility in water (Solubility in water): water-soluble
